From patent US20250186408A1, “TREATMENT OF PHARMACORESISTANT EPILEPSY” (Katholieke Universiteit Leuven, priority 2021, published 2025)
Like-named read-outs stand apart in the source and are kept apart here.

Columns and labels:
HRH1 = HRH1 (Homo sapiens, UniProt P35367); assay: Calcium Flux HRH1 Agonist; format: cell-based; settings: for Emax: read-out: Max response
Procedure: (≤0.2% DMSO concentration). Assays were performed in 1× dye loading buffer consisting of 1× Dye (DiscoverX, Calcium No Wash^PLUS kit, Catalog No. 90-0091), 1× Additive A and 2.5 mM Probenecid in HBSS/20 mM HEPES. Probenecid was prepared fresh. Prior to testing, media was aspirated from cells and replaced with 25 μL dye loading buffer. Cells were incubated for 45 min at 37° C. and then 20 min at RT. For agonist determination, 25 μL of 2× compound in HBSS/20 mM HEPES was added using a FLIPR Tetra (MDS). […] 25 μL of 2× sample was added and cells were incubated for 30 min at RT in the dark to equilibrate plate temperature. After incubation, antagonist determination was initiated by addition of 25 μL of 1× compound with 3×EC80 agonist using FLIPR. For both agonist and antagonist formats, activity was measure on a FLIPR Tetra (MDS). Calcium mobilization was monitored for 2 min with a 5 sec baseline read.
FLIPR read—Area under the curve, was calculated for the entire 2 min read.

GABAA = GABAA (Homo sapiens, UniProt P14867+P18507+P47870); assay: Ion Channel GABAA Opener; format: cell-based; settings: read-out: Max response
NET = target: T1, NET (Homo sapiens, UniProt P23975); assay: Transporter NET Blocker; format: cell-based; settings: for Emax: Transporter NET Blocker, read-out: Max response
T1 construct: Eurofins DiscoverX Corporation 87-1003DR; host or cells: unnamed cell lines
Procedure: (§1) After cell plating and incubation, media was removed an 25 μL of 1× compound in 1×HBSS/0.1% BSA was added. Compounds were incubated with cells for 30 min at 37° C. After compound incubation, 25 μL of 1× dye loading buffer (1× dye, 1×HBSS/20 mM HEPES) was added to the wells. Cells were incubated for 30-60 min at 37° C. After incubation, microplates were transferred to a PerkinElmer Envision™ instrument for fluorescent signal detection. […] For blocker mode assays, percentage of inhibition was calculated using the following formula: […]

SERT = target: T2, SERT (Homo sapiens, UniProt P31645); assay: Transporter SERT Blocker; format: cell-based; settings: for Emax: Transporter SERT Blocker, read-out: Max response
T2 construct: Eurofins DiscoverX Corporation 87-1003DR; host or cells: unnamed cell lines
Procedure: as §1

DRD1 = DRD1 (Homo sapiens, UniProt P21728); assay: cAMP DRD1 Agonist; settings: for Emax: read-out: Max response
Procedure: (§2) In vitro pharmacological profiling of compounds was done against 78 functional assays for 47 common off-targets (30) by Eurofins DiscoverX Corporation (Fremont, CA, USA) using their SAFETYscan E/IC50 ELECT service (Cat Ref 87-1003DR, Safety47 Panel Dose Response). […] Compounds were tested in a range of 10 concentrations, following a 3-fold serial dilution, starting from 10 μM. The assays were performed utilizing the PathHunter enzyme fragment complementation (EFC) technology, FLIPR®-based cellular screening assays, and KINOMEscan kinase binding assays.
(§3) cAMP Hunter cell lines were expanded from freezer stocks. Prior to testing, cells were seeded in a total volume of 20 μL into white walled 384-well microplates and incubated at 37° C. cAMP modulation was determined using the DiscoverX HitHunter cAMP XS+ assay. For Gs agonist determination, cells were incubated with sample to induce response. For Gi agonist determination, cells were incubated with sample in the presence of EC80 forskolin to induce response. For both conditions, media was aspirated from cells and replaced with 15 μL 2:1 HBSS/10 mM HEPES:cAMP XS+ Ab reagent. Intermediate dilution of sample stocks was performed to generate 4× sample in assay buffer (containing 4×EC80 forskolin in the case of antagonist determination). 5 μL of 4× sample was added to cells and incubated at 37° C. or room temperature (RT) for 30 or 60 min. Final assay vehicle concentration was 1%. For antagonist determination, cells were pre-incubated with sample followed by agonist challenge at the EC80 concentration. Media was aspirated from cells and replaced with 10 μL 1:1 HBSS/HEPES:cAMP XS+ Ab reagent. 5 μL of 4× compound was added to the cells and incubated at 37° C. or RT for 30 min. 5 μL of 4×EC80 agonist was added to the cells and incubated at 37° C. or RT for 30 or 60 min. For Gi coupled GPCRs, EC80 forskolin was included. […] Microplates were read following signal generation with a PerkinElmer Envision™ instrument for chemiluminescent signal detection. Compound activity was analyzed using CBIS data analysis suite (ChemInnovation, CA).

HTR1A = target: T3, HTR1A (Homo sapiens, UniProt P08908); assay: cAMP HTR1A Agonist; settings: for Emax: read-out: Max response
T3 sequence (P08908 1-422): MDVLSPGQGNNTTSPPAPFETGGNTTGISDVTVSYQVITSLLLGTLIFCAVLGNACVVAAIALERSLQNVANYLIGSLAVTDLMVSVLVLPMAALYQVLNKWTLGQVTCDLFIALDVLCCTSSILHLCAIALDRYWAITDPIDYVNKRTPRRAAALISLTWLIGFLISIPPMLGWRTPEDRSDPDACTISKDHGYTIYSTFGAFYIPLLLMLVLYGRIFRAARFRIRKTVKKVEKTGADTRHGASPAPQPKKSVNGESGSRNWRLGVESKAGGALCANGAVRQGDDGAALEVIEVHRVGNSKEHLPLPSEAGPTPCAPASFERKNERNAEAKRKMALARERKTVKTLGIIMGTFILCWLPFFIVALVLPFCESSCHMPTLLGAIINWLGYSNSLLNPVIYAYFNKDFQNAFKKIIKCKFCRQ
Procedure: (§4) In vitro pharmacological profiling of compounds was done against 78 functional assays for 47 common off-targets (30) by Eurofins DiscoverX Corporation (Fremont, CA, USA) using their SAFETYscan E/IC50 ELECT service (Cat Ref 87-1003DR, Safety47 Panel Dose Response). […] Compounds were tested in a range of 10 concentrations, following a 3-fold serial dilution, starting from 10 μM.
as §3

OPRD1 = OPRD1 (Homo sapiens, UniProt P41143); assay: cAMP OPRD1 Agonist; settings: for Emax: read-out: Max response
Procedure: as §4, §3

ADRA2A = target: T4, ADRA2A (Homo sapiens, UniProt P08913); assay: cAMP ADRA2A Agonist; settings: for Emax: read-out: Max response
T4 sequence (P08913 1-465): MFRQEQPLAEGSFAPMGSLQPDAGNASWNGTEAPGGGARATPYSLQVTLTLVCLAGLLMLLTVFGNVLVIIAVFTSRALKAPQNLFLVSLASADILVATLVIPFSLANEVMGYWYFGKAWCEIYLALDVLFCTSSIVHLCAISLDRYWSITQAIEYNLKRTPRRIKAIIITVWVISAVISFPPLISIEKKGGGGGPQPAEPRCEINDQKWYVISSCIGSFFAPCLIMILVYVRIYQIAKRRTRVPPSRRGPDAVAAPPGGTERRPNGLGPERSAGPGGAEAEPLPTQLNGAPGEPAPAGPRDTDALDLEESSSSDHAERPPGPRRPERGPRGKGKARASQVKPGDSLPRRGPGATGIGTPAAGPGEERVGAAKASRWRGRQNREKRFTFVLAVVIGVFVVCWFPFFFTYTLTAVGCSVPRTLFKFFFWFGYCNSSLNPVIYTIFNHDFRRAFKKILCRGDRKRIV
Procedure: as §2, §3

CHRM3 = CHRM3 (Homo sapiens, UniProt P20309); assay: Calcium Flux CHRM3 Agonist; settings: for Emax: read-out: Max response
Procedure: as §2
(§5) Prior to testing, cells (10,000 cells/well) were expanded from freezer stocks and seeded into a total volume of 50 μL into black walled, clear-bottom, Poly-D-lysine coated 384-well microplates and incubated at 37° C. […] Assays were performed in 1× dye loading buffer consisting of 1× Dye (DiscoverX, Calcium No Wash^PLUS kit, Catalog No. 90-0091), 1× Additive A and 2.5 mM Probenecid in HBSS/20 mM HEPES. Probenecid was prepared fresh. Prior to testing, media was aspirated from cells and replaced with 25 μL dye loading buffer. Cells were incubated for 45 min at 37° C. and then 20 min at RT. For agonist determination, 25 μL of 2× compound in HBSS/20 mM HEPES was added using a FLIPR Tetra (MDS). For antagonist determination, cells were pre-incubated with sample followed by agonist challenge at the EC80 concentration. 25 μL of 2× sample was added and cells were incubated for 30 min at RT in the dark to equilibrate plate temperature. After incubation, antagonist determination was initiated by addition of 25 μL of 1× compound with 3×EC80 agonist using FLIPR. For both agonist and antagonist formats, activity was measure on a FLIPR Tetra (MDS). Calcium mobilization was monitored for 2 min with a 5 sec baseline read.
(§6) FLIPR read—Area under the curve, was calculated for the entire 2 min read. Compound activity was analysed using CBIS data analysis suite (ChemInnovation, CA).

ADRA1A = target: T5, ADRA1A (Homo sapiens, UniProt P35348); assay: Calcium Flux ADRA1A Agonist; settings: for Emax: read-out: Max response
T5 sequence (P35348 1-466): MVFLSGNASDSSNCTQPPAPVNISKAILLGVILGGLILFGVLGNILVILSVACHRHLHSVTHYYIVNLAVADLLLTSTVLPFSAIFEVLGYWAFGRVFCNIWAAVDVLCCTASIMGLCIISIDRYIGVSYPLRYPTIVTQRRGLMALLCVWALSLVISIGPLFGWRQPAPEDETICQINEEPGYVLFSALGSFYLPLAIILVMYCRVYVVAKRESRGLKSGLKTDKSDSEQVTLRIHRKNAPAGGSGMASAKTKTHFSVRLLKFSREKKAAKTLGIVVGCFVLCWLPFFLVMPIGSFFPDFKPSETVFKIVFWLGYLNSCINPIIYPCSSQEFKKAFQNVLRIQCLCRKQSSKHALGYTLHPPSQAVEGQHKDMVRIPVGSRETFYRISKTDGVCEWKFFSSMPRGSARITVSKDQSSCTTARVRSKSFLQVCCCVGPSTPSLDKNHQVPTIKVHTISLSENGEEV
Procedure: as §2, §5, §6

DRD1, sequence (P21728 whole entry): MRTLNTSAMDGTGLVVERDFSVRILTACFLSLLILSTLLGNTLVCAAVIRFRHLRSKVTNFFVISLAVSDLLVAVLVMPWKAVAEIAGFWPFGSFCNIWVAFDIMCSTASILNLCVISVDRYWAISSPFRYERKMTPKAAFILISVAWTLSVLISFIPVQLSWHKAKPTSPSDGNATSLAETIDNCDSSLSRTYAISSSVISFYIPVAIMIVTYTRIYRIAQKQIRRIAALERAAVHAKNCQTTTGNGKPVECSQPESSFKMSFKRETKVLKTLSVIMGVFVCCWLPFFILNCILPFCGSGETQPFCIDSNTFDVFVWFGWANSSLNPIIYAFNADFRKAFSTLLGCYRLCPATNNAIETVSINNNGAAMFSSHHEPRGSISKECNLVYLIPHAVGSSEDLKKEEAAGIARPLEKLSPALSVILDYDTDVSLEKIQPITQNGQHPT
T1 sequence (P23975 whole entry): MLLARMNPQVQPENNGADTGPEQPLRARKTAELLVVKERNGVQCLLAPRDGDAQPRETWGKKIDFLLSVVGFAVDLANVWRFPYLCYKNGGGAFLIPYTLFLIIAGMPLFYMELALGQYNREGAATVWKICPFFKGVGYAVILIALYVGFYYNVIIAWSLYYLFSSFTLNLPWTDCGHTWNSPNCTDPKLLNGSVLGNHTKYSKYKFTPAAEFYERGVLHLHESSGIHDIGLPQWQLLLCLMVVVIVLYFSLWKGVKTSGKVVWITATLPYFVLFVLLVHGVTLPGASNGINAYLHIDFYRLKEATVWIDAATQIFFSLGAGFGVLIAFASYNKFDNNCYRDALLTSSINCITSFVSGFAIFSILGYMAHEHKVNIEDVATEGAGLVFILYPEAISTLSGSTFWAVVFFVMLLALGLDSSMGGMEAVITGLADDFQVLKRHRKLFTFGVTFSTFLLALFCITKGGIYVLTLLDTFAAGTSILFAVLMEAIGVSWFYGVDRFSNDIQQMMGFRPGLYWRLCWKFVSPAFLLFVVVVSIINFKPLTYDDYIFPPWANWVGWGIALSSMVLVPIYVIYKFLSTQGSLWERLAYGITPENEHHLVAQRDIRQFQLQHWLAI
HRH1, sequence (P35367 whole entry): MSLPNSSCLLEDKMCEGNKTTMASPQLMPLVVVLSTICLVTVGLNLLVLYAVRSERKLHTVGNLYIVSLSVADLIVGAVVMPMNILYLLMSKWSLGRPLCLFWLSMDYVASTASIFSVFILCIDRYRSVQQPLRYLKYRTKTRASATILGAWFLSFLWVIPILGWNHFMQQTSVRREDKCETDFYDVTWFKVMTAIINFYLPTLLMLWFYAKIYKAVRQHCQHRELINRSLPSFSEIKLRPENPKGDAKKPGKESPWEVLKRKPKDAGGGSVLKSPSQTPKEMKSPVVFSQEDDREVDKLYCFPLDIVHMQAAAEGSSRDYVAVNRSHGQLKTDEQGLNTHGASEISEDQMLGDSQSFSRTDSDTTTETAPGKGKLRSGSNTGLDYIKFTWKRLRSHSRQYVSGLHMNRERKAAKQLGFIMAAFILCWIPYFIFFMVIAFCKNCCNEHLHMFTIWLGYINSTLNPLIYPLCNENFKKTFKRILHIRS
OPRD1, sequence (P41143 whole entry): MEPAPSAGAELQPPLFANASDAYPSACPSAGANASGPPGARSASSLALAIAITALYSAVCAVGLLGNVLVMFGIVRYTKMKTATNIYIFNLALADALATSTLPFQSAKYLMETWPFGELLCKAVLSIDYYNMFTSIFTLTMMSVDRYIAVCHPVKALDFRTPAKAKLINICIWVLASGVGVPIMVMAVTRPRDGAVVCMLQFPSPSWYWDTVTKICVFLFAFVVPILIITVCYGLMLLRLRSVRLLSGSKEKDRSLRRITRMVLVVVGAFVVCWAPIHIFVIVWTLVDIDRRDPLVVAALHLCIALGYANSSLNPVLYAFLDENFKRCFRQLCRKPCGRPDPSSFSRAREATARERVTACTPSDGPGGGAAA
T2 sequence (P31645 whole entry): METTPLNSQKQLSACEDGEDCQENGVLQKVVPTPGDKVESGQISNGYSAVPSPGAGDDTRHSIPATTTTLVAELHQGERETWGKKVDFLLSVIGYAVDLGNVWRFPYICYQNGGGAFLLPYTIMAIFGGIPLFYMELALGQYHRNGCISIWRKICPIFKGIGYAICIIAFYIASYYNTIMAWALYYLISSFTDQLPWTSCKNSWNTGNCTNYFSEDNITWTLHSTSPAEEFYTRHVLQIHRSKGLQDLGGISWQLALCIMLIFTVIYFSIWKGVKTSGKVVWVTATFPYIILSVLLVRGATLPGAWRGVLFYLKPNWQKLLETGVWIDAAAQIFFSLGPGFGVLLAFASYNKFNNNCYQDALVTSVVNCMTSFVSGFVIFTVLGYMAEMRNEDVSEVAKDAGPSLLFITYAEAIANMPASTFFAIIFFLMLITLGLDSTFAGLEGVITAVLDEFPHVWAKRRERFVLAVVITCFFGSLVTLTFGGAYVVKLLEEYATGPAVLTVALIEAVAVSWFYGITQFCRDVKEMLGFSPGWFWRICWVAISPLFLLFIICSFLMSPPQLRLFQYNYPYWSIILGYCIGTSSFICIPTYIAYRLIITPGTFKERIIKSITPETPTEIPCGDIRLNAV
CHRM3, sequence (P20309 whole entry): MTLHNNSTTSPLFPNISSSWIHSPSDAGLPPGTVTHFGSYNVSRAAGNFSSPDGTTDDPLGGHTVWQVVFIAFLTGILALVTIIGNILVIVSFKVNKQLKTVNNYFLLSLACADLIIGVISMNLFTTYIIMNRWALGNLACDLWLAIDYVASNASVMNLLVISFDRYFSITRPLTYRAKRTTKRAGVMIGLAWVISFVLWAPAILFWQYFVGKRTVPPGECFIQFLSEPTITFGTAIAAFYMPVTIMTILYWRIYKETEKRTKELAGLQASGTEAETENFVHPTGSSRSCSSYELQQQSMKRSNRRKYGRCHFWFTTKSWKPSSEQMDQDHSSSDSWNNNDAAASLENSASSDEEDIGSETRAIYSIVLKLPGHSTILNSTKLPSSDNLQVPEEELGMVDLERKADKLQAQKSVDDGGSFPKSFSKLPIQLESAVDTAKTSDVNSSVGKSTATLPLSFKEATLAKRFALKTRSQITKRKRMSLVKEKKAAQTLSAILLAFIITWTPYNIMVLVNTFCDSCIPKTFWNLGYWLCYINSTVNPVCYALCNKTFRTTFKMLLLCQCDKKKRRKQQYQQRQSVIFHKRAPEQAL
GABAA, sequence (P14867 28-456): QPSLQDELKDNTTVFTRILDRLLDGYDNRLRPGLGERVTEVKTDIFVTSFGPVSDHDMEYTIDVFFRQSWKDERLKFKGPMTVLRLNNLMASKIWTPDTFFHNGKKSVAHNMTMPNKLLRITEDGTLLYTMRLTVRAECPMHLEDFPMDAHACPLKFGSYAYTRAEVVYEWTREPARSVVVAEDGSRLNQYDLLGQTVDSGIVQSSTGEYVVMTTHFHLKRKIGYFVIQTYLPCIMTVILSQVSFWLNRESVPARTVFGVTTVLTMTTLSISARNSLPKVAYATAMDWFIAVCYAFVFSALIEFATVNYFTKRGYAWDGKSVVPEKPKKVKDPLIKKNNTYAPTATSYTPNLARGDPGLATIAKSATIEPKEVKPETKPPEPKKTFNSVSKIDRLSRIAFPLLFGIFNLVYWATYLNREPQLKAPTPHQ
GABAA, sequence (P47870 26-512): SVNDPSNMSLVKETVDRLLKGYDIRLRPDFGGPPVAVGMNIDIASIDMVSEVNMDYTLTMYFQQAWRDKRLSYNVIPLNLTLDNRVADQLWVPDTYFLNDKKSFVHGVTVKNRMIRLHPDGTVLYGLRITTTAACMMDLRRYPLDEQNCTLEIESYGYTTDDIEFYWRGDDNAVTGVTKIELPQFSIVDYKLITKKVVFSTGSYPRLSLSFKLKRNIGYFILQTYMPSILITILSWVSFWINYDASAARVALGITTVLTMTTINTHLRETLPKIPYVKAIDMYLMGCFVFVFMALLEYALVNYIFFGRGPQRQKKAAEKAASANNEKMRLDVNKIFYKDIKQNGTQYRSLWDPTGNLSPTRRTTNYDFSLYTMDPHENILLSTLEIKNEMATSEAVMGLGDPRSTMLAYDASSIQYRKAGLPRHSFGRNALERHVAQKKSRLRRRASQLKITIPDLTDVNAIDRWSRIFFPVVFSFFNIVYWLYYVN
GABAA, sequence (P18507 40-475): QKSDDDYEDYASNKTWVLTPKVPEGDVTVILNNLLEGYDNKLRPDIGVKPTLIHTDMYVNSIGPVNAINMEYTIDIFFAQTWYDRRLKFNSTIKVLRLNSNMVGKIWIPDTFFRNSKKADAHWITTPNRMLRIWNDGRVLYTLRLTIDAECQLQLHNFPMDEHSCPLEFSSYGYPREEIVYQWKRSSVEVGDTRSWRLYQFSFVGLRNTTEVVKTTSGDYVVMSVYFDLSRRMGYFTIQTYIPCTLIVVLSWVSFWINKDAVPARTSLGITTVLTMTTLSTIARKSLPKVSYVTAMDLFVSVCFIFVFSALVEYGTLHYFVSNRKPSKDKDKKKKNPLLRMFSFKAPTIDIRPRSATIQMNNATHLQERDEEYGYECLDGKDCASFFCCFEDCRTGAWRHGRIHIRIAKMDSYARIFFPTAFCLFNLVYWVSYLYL

Structure (SMILES): CC(C)(C)c1ccc(C#CC(O)c2ccccc2)cc1 (racemic) [Compound 3.3, rac-3-(4-(tert-butyl)phenyl)-1-phenylprop-2-yn-1-ol]
- EC50 (HRH1): > 10 µM
- Emax (HRH1): 0%
- Emax (GABAA): 0%
- IC50 (NET): > 10 µM
- Emax (NET): 0%
- IC50 (SERT): > 10 µM
- Emax (SERT): 0%
- EC50 (DRD1): > 10 µM
- Emax (DRD1): 1.2%
- EC50 (HTR1A): > 10 µM
- Emax (HTR1A): 0%
- EC50 (OPRD1): > 10 µM
- Emax (OPRD1): 3.6%
- EC50 (ADRA2A): > 10 µM
- Emax (ADRA2A): 0%
- EC50 (CHRM3): > 10 µM
- Emax (CHRM3): 0%
- EC50 (ADRA1A): > 10 µM
- Emax (ADRA1A): 0.6%

Structure (SMILES): Clc1cccc(C#Cc2n[nH]c3ncccc23)c1 [Compound 10.1, 3-((3-chlorophenyl)ethynyl)-1H-pyrazolo[3,4-b]pyridine]
- Emax (HRH1; Calcium Flux HRH1 Agonist): 0%
- EC50 (HRH1; Calcium Flux HRH1 Agonist, read-out: RC50, result type EC50): > 10 µM
- Emax (GABAA): 1.3%
- IC50 (NET): > 10 µM
- Emax (NET): 13.6%
- IC50 (SERT): > 10 µM
- Emax (SERT): 0%
- EC50 (DRD1): > 10 µM
- Emax (DRD1): 1.3%
- EC50 (HTR1A): > 10 µM
- Emax (HTR1A): 9.1%
- EC50 (OPRD1): > 10 µM
- Emax (OPRD1): 12.1%
- EC50 (ADRA2A): > 10 µM
- Emax (ADRA2A): 20.7%
- EC50 (CHRM3): > 10 µM
- Emax (CHRM3): 2.2%
- EC50 (ADRA1A): > 10 µM
- Emax (ADRA1A): 0.6%
